Data on two molecules can be found in patent publication US20080064701A1, “Anti-diabetic combinations” (priority 2007, published 2008).

One series concerns patients with T2DM. The following applies: cited from earlier work.
The test system of series [1] is patients with type 2 diabetes. The following applies: human, in vivo; for patients who had adverse events: 24 weeks. An excerpt:
Laboratory results were then reviewed for these particular patients to determine which patients actually had clinically important changes in a given laboratory parameter.

The mark [2] stands for this setting: monotherapy, 100 or 200 mg daily.

Read-outs that look alike come from different tables or passages of the source.

As for `N[C@@H](CC(=O)N1CCn2c(nnc2C(F)(F)F)C1)Cc1cc(F)c(F)cc1F` [sitagliptin, Sitagliptin], the weight gain result in the series with patients with T2DM (24-week monotherapy studies) is “no significant weight gain”. For the same molecule, the “patients achieving a HbA1C of <7%” value in the series on patients with T2DM (24-week, background pioglitazone (30 or 45 mg daily)) is 45.4%. Further, in the series on patients with T2DM (24-week, sitagliptin 100 mg daily add-on to pioglitazone (30 or 45 mg daily), mean baseline HbA1C 8.1%), the “mean HbA1C reduction” value is recorded as 0.7%. Besides, in the series on patients with T2DM (setting [2]), the HbA1C result is recorded as “significantly reduced” and the hypoglycemia entry is reported as “no significant increase in hypoglycemia”. The “fasting and postprandial glycaemia” value with patients with T2DM (monotherapy) is “reduced both fasting and postprandial glycaemia”. Further, in the series with patients with T2DM (sitagliptin 100 mg daily added to at least 1,500 mg per day of metformin), the “mean placebo-subtracted reduction in HbA1C” value was 0.65%. In the series with patients with T2DM (sitagliptin 100 mg daily added to at least 1,500 mg per day of metformin, mean baseline HbA1C 8%), the “patients achieving a HbA1C of <7%” value is listed as 47%. Further, in series [1], the “clinically important decreases in any hematological parameter attributable to drug” value is listed as “no patient experienced clinically important decreases”; the “responsibility for clinically meaningful elevations in ALT and AST” value is reported as “not responsible for the variations”; the “patients who had adverse events” value was 8%.

For the molecule `CN(C)C(=N)N=C(N)N` [metformin], the “patients who had adverse events” value in series [1] came out at 10%.
